The record followed here is patent US20210154188A1, “ALK5 INHIBITORS, CONJUGATES, AND USES THEREOF” (SILVERBACK THERAPEUTICS, INC., priority 2018, published 2021).

Structures are written as SMILES. pIC50: −log10 of the molar value.

Experiment [1] concerns the target T1, ALK5 (Homo sapiens, UniProt P36897).
T1 construct: purchased Reaction Biology Corp (Malvern, PA)
T1 sequence (P36897 34-503): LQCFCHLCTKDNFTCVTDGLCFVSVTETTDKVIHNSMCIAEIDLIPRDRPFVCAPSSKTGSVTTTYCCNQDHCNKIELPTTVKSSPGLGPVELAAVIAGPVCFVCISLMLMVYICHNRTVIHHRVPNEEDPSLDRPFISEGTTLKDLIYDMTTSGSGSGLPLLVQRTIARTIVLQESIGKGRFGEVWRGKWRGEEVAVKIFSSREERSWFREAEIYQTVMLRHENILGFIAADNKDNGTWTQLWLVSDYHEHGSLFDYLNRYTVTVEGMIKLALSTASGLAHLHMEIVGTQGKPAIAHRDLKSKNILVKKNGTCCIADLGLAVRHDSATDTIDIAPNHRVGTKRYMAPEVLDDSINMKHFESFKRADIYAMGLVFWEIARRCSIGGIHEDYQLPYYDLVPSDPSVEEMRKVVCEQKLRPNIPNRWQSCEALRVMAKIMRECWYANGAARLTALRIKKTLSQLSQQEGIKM
The experiment can be described thus: ALK5 enzyme inhibition assay (33P-ATP filter-binding, Reaction Biology Corp). Particulars: casein substrate 1 mg/mL, 10 uM ATP. It counts as biochemical. Here is the method:
ALK5 enzyme inhibition assays were performed by Reaction Biology Corp (Malvern, PA). 1 mg/mL of peptide subtrate (casein) and 10 uM ATP were prepared in a mixture of fresh reaction buffer. The kinase was delivered into the substrate solution which was gently mixed. Compounds in 100% DMSO were added to the kinase reaction mixture by Acoustic technology (Echo550; nanoliter range) and the mixture was incubated for 20 min at room temperature. ^33P-ATP (Specific activity 10 uCi/uL) was added into the reaction mixture to initiate the reaction and the reaction mixture was incubated for 2 hours at room temperature. Radioactivity was detected by filter-binding method and kinase activity data were expressed as the percent remaining kinase activity in test samples compared to vehicle (dimethyl sulfoxide) reactions. IC50 values and curve fits were obtained using Prism (GraphPad Software).

The test system of experiment [2] is TGFb/SMAD Signaling Pathway SBE reporter cell line. Nature of the experiment: TGFb reporter assay (luciferase). It counts as cell-based. Particulars: 5-6 h preincubation, then TGFb, 18 h, luminescence. Here is the method: TGFb/SMAD Signaling Pathway SBE reporter cell line was obtained from BPS Bioscience. Cells were passed/expanded/stored in liquid nitrogen per supplier's instruction with the exception that growth media was changed to DMEM-C with Geneticin (DMEM supplemented with 10% fetal bovine serum, 1× NEAA, 1 mM Pyruvate, 2 mM glutamine, 50 μg/mL penicillin, 50 U/mL streptomycin and 400 ug/mL of Geneticin). The assay media was MEM supplemented with 0.5% fetal bovine serum, 1× NEAA, 1 mM Pyruvate, 50 μg/mL penicillin and 50 U/mL streptomycin.
Reporter cells were harvested from the tissue culture flasks by incubation in small quantity of Versene at room temperature for three to five minutes after the media in the flask was removed and cells rinsed with PBS. Cells were counted and diluted in the assay media at ˜0.8×10^6 cells/mL then 50 uL/well were added to 96-well assay plate. Test samples (at desired concentrations diluted in assay media) were added to assay plate containing the 50 uL/well of cells (or media only), 50 uL per well, and incubated for 5-6 hours at 37° C. in a 5% CO2 humidified incubator. After that time, 15 uL of TGFb diluted to 12.5 ng/mL in the assay media was added to the plate. Controls included TGFb titration (from 25 to 0 ng/mL) without inhibitors, and media only (without cells, inhibitor or TGFb). Plates were incubated at 37° C. in a 5% CO2 humidified incubator for 18 h. Luciferase substrate solution was subsequently added at 75 uL per well, incubated in dark with shaking at room temperature for 10 min, and luminescence was measured using a luminometer.

By pIC50 is commonly meant the IC50 on a negative log10 scale, so that one unit is a factor of ten. The low end stands for a high IC50, the high end for a low IC50.

For `Cc1cccc(-c2nc(CNc3cccc4c3CCNC4)[nH]c2-c2ccc3ncnn3c2)n1` [Compound 1.4, N-((5-([1,2,4]triazolo[1,5-a]pyridin-6-yl)-4-(6-methylpyridin-2-yl)-1H-imidazol-2-yl)methyl)-1,2,3,4-tetrahydroisoquinolin-5-amine], the pIC50 in experiment [1] and in experiment [2] was 6.00 to 7.00 in each case.

Regarding `Cc1cccc(-c2nc(CNCc3ccc4ccccc4c3)[nH]c2-c2ccc3ncnn3c2)n1` [Compound 1.58, 1-(5-([1,2,4]triazolo[1,5-a]pyridin-6-yl)-4-(6-methylpyridin-2-yl)-1H-imidazol-2-yl)-N-(naphthalen-2-ylmethyl)methanamine], the pIC50 in experiment [1] and in experiment [2] was 6.00 to 7.00 throughout.

`Cc1cccc(-c2nc(CN3CCc4ccccc4C3)[nH]c2-c2ccn3ncnc3c2)n1` [Compound 1.40, 2-((5-([1,2,4]triazolo[1,5-a]pyridin-7-yl)-4-(6-methylpyridin-2-yl)-1H-imidazol-2-yl)methyl)-1,2,3,4-tetrahydroisoquinoline]: the pIC50 in experiment [1] and in experiment [2] was 6.00 to 7.00 throughout.

Consider `Cc1cccc(-c2nc(CNCCc3cccc4ccccc34)[nH]c2-c2ccc3ncnn3c2)n1` [Compound 1.59, N-((5-([1,2,4]triazolo[1,5-a]pyridin-6-yl)-4-(6-methylpyridin-2-yl)-1H-imidazol-2-yl)methyl)-2-(naphthalen-1-yl)ethan-1-amine], for which the pIC50 in experiment [1] and in experiment [2] was 7.00 to 8.00 throughout.

`Cc1cccc(-c2nc(CNC3Cc4ccccc4C3)[nH]c2-c2ccc3ncnn3c2)n1` [Compound 1.27, N-((5-([1,2,4]triazolo[1,5-a]pyridin-6-yl)-4-(6-methylpyridin-2-yl)-1H-imidazol-2-yl)methyl)-2,3-dihydro-1H-inden-2-amine]: the pIC50 is 6.00 to 7.00 in experiment [1] and 7.00 to 8.00 in experiment [2].

Take `Cc1cccc(-c2nc(CNCc3ccc4c(c3)OCO4)[nH]c2-c2ccc3ncnn3c2)n1` [Compound 1.41, 1-(5-([1,2,4]triazolo[1,5-a]pyridin-6-yl)-4-(6-methylpyridin-2-yl)-1H-imidazol-2-yl)-N-(benzo[d][1,3]dioxol-5-ylmethyl)methanamine]: the pIC50 in experiment [1] and in experiment [2] was 6.00 to 7.00 each time.

Consider `Cc1cccc(-c2nc(CNC3CCc4ccccc43)[nH]c2-c2ccc3ncnn3c2)n1` (racemic) [Compound 1.26, rac-N-((5-([1,2,4]triazolo[1,5-a]pyridin-6-yl)-4-(6-methylpyridin-2-yl)-1H-imidazol-2-yl)methyl)-2,3-dihydro-1H-inden-1-amine], for which the results for the pIC50 in experiment [1] and in experiment [2] were 6.00 to 7.00 and 7.00 to 8.00, respectively.

For `Cc1cccc(-c2nc(CNC3CCCC3)[nH]c2-c2ccc3ncnn3c2)n1` [Compound 1.11, 1-(5-([1,2,4]triazolo[1,5-a]pyridin-6-yl)-4-(6-methylpyridin-2-yl)-1H-imidazol-2-yl)-N-(cyclopentyl)methanamine], the pIC50 was 6.00 to 7.00 in experiment [1] and 7.00 to 8.00 in experiment [2].

As to `Cc1cccc(-c2nc(CN3CCCCC3)[nH]c2-c2ccn3ncnc3c2)n1` [Compound 1.35, 7-(4-(6-methylpyridin-2-yl)-2-(piperidin-1-ylmethyl)-1H-imidazol-5-yl)-[1,2,4]triazolo[1,5-a]pyridine], the pIC50 in experiment [1] was 5.00 to 6.00; in experiment [2], 6.00 to 7.00.

Take `Cc1cccc(-c2nc(CN[C@H]3c4ccccc4C[C@@H]3O)[nH]c2-c2ccc3ncnn3c2)n1` [Compound 1.45, (1S,2S)-1-(((5-([1,2,4]triazolo[1,5-a]pyridin-6-yl)-4-(6-methylpyridin-2-yl)-1H-imidazol-2-yl)methyl)amino)-2,3-dihydro-1H-inden-2-ol]: the pIC50 is 6.00 to 7.00 in experiment [1] and 7.00 to 8.00 in experiment [2].

Regarding `Cc1cccc(-c2nc(CNC3CCOCC3)[nH]c2-c2ccc3ncnn3c2)n1` [Compound 1.14, 1-(5-([1,2,4]triazolo[1,5-a]pyridin-6-yl)-4-(6-methylpyridin-2-yl)-1H-imidazol-2-yl)-N-(4-tetrahydropyranyl)methanamine], the pIC50 is 6.00 to 7.00 in experiment [1] and 7.00 to 8.00 in experiment [2].

Regarding `Cc1cccc(-c2nc(CN3Cc4ccccc4C3=O)[nH]c2-c2ccc3ncnn3c2)n1` [Compound 1.56, 2-((5-([1,2,4]triazolo[1,5-a]pyridin-6-yl)-4-(6-methylpyridin-2-yl)-1H-imidazol-2-yl)methyl)isoindolin-1-one], the pIC50 in experiment [1] is 6.00 to 7.00; in experiment [2], 7.00 to 8.00.

As for `Cc1cccc(-c2nc(CNc3ccc4c(c3)CCNC4)[nH]c2-c2ccc3ncnn3c2)n1` [Compound 1.2, N-((5-([1,2,4]triazolo[1,5-a]pyridin-6-yl)-4-(6-methylpyridin-2-yl)-1H-imidazol-2-yl)methyl)-1,2,3,4-tetrahydroisoquinolin-6-amine], the pIC50 in experiment [1] and in experiment [2] was 6.00 to 7.00 in each case.

Regarding `Cc1cccc(-c2nc(CNCC3CCCCC3)[nH]c2-c2ccc3ncnn3c2)n1` [Compound 1.42, 1-(5-([1,2,4]triazolo[1,5-a]pyridin-6-yl)-4-(6-methylpyridin-2-yl)-1H-imidazol-2-yl)-N-(cyclohexylmethyl)methanamine], the pIC50 in experiment [1] is 6.00 to 7.00; in experiment [2], 7.00 to 8.00.

Take `Cc1cccc(-c2nc(CNc3cccc4c3CNC4)[nH]c2-c2ccc3ncnn3c2)n1` [Compound 1.31, N-((5-([1,2,4]triazolo[1,5-a]pyridin-6-yl)-4-(6-methylpyridin-2-yl)-1H-imidazol-2-yl)methyl)isoindolin-4-amine]: the pIC50 in experiment [1] and in experiment [2] was 6.00 to 7.00 each time.

For the compound `Cc1cccc(-c2nc(CNC3CCCCC3)[nH]c2-c2ccc3ncnn3c2)n1` [Compound 1.12, 1-(5-([1,2,4]triazolo[1,5-a]pyridin-6-yl)-4-(6-methylpyridin-2-yl)-1H-imidazol-2-yl)-N-(cyclohexyl)methanamine], the results for the pIC50 in experiment [1] and in experiment [2] were 6.00 to 7.00 and 7.00 to 8.00, respectively.

Turning to `Cc1cccc(-c2nc(CN[C@@H]3c4ccccc4C[C@@H]3O)[nH]c2-c2ccc3ncnn3c2)n1` [Compound 1.44, (1R,2S)-1-(((5-([1,2,4]triazolo[1,5-a]pyridin-6-yl)-4-(6-methylpyridin-2-yl)-1H-imidazol-2-yl)methyl)amino)-2,3-dihydro-1H-inden-2-ol], the pIC50 was 6.00 to 7.00 in experiment [1] and 7.00 to 8.00 in experiment [2].

For `Cc1cccc(-c2nc(CNCCc3cccc4ncccc34)[nH]c2-c2ccc3ncnn3c2)n1` [Compound 1.61, N-((5-([1,2,4]triazolo[1,5-a]pyridin-6-yl)-4-(6-methylpyridin-2-yl)-1H-imidazol-2-yl)methyl)-2-(quinolin-5-yl)ethan-1-amine], the pIC50 in experiment [1] is 6.00 to 7.00; in experiment [2] it was 7.00 to 8.00.

For `Cc1cccc(-c2nc(CN[C@@H]3CCc4ccccc43)[nH]c2-c2ccc3ncnn3c2)n1` [Compound 1.30, (R)-N-((5-([1,2,4]triazolo[1,5-a]pyridin-6-yl)-4-(6-methylpyridin-2-yl)-1H-imidazol-2-yl)methyl)-2,3-dihydro-1H-inden-1-amine], the pIC50 in experiment [1] is 6.00 to 7.00; in experiment [2] it was 7.00 to 8.00.

For `Cc1cccc(-c2nc(CNC3CCCCCC3)[nH]c2-c2ccc3ncnn3c2)n1` [Compound 1.13, 1-(5-([1,2,4]triazolo[1,5-a]pyridin-6-yl)-4-(6-methylpyridin-2-yl)-1H-imidazol-2-yl)-N-(cycloheptyl)methanamine], the pIC50 is 6.00 to 7.00 in experiment [1] and 7.00 to 8.00 in experiment [2].

Regarding `Cc1cccc(-c2nc(CN[C@H]3CCCC[C@@H]3F)[nH]c2-c2ccc3ncnn3c2)n1` [Compound 1.32, (1S,2S)-N-((5-([1,2,4]triazolo[1,5-a]pyridin-6-yl)-4-(6-methylpyridin-2-yl)-1H-imidazol-2-yl)methyl)-2-fluorocyclohexan-1-amine], the pIC50 in experiment [1] is 7.00 to 8.00; in experiment [2] it was 6.00 to 7.00.
